Earlier results on one compound are cited in patent US6660299B2, “Modified release pharmaceutical formulation comprising amoxycillin” (Beecham Pharmaceuticals Limited, priority 1999, dated 2003).

The conditions of this series: in vivo.

In the case of `CC1(C)S[C@@H]2[C@H](NC(=O)[C@H](N)c3ccc(O)cc3)C(=O)N2[C@H]1C(=O)O` [amoxycillin], the excretion half-life was 1.3 h.
